Measured values published in the supplement of paper PMC10307832.

Columns and labels:
Experiment in all cases: relative viability (nuclei count vs DMSO), 5 days (fraction); higher = more cells survive
[1] = compound: Cn1cc(-c2cnn3c(N)c(Br)c([C@@H]4CCCNC4)nc23)cn1 + O=C(CCCCCCC(=O)Nc1ccccc1)NO [Vorinostat] (partner 1 µM)
Method in brief: (§1)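 Values are medians from duplicate plates. Each reflects relative viability, defined as the nuclei count of treated wells over that of vehicle wells. Lung cancer cell lines in 1536-well plates were pin-tool dosed one day after seeding with one drug alone or with a fixed anchor-drug dose plus five library-drug doses (not always all listed) in √10 steps, then fixed, stained and imaged at 4× after 5 days.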

[2] = compound: Cn1cc(-c2cnn3c(N)c(Br)c([C@@H]4CCCNC4)nc23)cn1 + Nc1nc2[nH]cc(CCc3ccc(C(=O)N[C@@H](CCC(=O)O)C(=O)O)cc3)c2c(=O)[nH]1 [Pemetrexed] (partner 0.2 µM)
Method in brief: as §1

[3] = compound: Cn1cc(-c2cnn3c(N)c(Br)c([C@@H]4CCCNC4)nc23)cn1 + Cc1nc(Nc2ncc(C(=O)Nc3c(C)cccc3Cl)s2)cc(N2CCN(CCO)CC2)n1 [Dasatinib] (partner 0.075 µM)
Method in brief: as §1

[4] = compound: Cn1cc(-c2cnn3c(N)c(Br)c([C@@H]4CCCNC4)nc23)cn1 + CC(=O)c1c(C)c2cnc(Nc3ccc(N4CCNCC4)cn3)nc2n(C2CCCC2)c1=O [Palbociclib] (partner 0.5 µM)
Method in brief: as §1

Row | Cell Line | relative viability ([1]; first compound 0.05 µM) | relative viability ([1]; first compound 0.1581 µM) | relative viability ([1]; first compound 0.5 µM) | relative viability ([1]; first compound 1.581 µM) | relative viability ([1]; first compound 5 µM) | relative viability ([2]; first compound 0.05 µM) | relative viability ([2]; first compound 0.1581 µM) | relative viability ([2]; first compound 0.5 µM) | relative viability ([2]; first compound 1.581 µM) | relative viability ([2]; first compound 5 µM) | relative viability ([3]; first compound 0.05 µM) | relative viability ([3]; first compound 0.1581 µM) | relative viability ([3]; first compound 0.5 µM) | relative viability ([3]; first compound 1.581 µM) | relative viability ([3]; first compound 5 µM) | relative viability ([4]; first compound 0.05 µM) | relative viability ([4]; first compound 0.1581 µM) | relative viability ([4]; first compound 0.5 µM) | relative viability ([4]; first compound 1.581 µM) | relative viability ([4]; first compound 5 µM)
1 | NCI-H460 | 0.926 | 1.1 | 0.245 | 0.405 | 0.111 | 0.0569 | 0.0582 | 0.0504 | 0.0664 | 0.0552 | 0.533 | 0.437 | 0.483 | 0.317 | 0.144 | 0.227 | 0.144 | 0.0866 | 0.0886 | 0.0189
2 | NCI-H520 | 0.681 | 0.676 | 0.702 | 0.467 | 0.446 | 0.596 | 0.584 | 0.554 | 0.452 | 0.296 | 0.178 | 0.258 | 0.191 | 0.176 | 0.165 | 0.266 | 0.232 | 0.231 | 0.199 | 0.172
3 | NCI-H522 | 0.845 | 0.936 | 0.871 | 0.842 | 0.797 | 0.938 | 0.913 | 1.02 | 1.01 | 0.865 | 0.785 | 0.849 | 0.551 | 0.828 | 0.831 | 1.1 | 0.918 | 0.757 | 1.07 | 0.95
4 | NCI-H647 | 0.625 | 0.607 | 0.522 | 0.256 | 0.15 | 0.174 | 0.104 | 0.104 | 0.114 | 0.0596 | 0.212 | 0.326 | 0.143 | 0.12 | 0.123 | 0.378 | 0.47 | 0.423 | 0.228 | 0.107
5 | NCI-H650 | 0.412 | 0.514 | 0.384 | 0.447 | 0.337 | 0.893 | 0.93 | 0.92 | 0.919 | 0.63 | 0.439 | 0.409 | 0.451 | 0.474 | 0.422 | 0.372 | 0.357 | 0.36 | 0.313 | 0.324
6 | NCI-H661 | 0.829 | 0.82 | 0.833 | 0.736 | 0.63 | 0.98 | 0.635 | 0.667 | 0.754 | 0.588 | 0.898 | 0.962 | 0.891 | 0.82 | 0.432 | 0.395 | 0.371 | 0.387 | 0.389 | 0.344
7 | NCI-H838 | 0.788 | 0.779 | 0.742 | 0.65 | 0.527 | 0.229 | 0.168 | 0.175 | 0.17 | 0.151 | 0.196 | 0.298 | 0.277 | 0.284 | 0.254 | 0.238 | 0.228 | 0.211 | 0.178 | 0.224
8 | NCI-H1355 | 0.645 | 0.743 | 0.664 | 0.524 | 0.564 | 0.978 | 1.16 | 1.11 | 1.08 | 0.88 | 0.705 | 0.705 | 0.596 | 0.652 | 0.566 | 0.371 | 0.425 | 0.397 | 0.385 | 0.382
9 | NCI-H1395 | 0.533 | 0.427 | 0.556 | 0.49 | 0.317 | 0.695 | 0.445 | 0.535 | 0.578 | 0.446 | 0.397 | 0.463 | 0.399 | 0.368 | 0.351 | 0.628 | 0.492 | 0.567 | 0.421 | 0.419
10 | NCI-H1437 | 0.907 | 0.927 | 0.955 | 0.692 | 0.508 | 0.294 | 0.226 | 0.248 | 0.172 | 0.194 | 0.389 | 0.39 | 0.4 | 0.298 | 0.343 | 0.311 | 0.321 | 0.339 | 0.259 | 0.231
11 | NCI-H1650 | 0.594 | 0.524 | 0.471 | 0.595 | 0.336 | 0.368 | 0.288 | 0.292 | 0.239 | 0.224 |  | 0.296 | 0.257 | 0.256 | 0.178 | 0.248 | 0.366 | 0.281 | 0.244 | 0.254
12 | NCI-H1651 | 0.543 | 0.587 | 0.512 | 0.531 | 0.39 | 0.549 | 0.406 | 0.559 | 0.32 | 0.198 | 0.348 | 0.447 | 0.551 | 0.224 | 0.149 | 0.556 | 0.564 | 0.536 | 0.502 | 0.424
13 | NCI-H1666 | 1.16 | 1.03 | 0.886 | 0.906 | 0.844 | 0.837 | 0.826 | 0.749 | 0.63 | 0.658 | 0.818 | 0.734 | 0.642 | 0.756 | 0.785 | 0.674 | 0.654 | 0.649 | 0.615 | 0.618
14 | NCI-H1734 | 0.788 | 0.75 | 0.653 | 0.586 | 0.348 | 0.411 | 0.384 | 0.347 | 0.307 | 0.265 | 0.469 | 0.506 | 0.435 | 0.345 | 0.338 | 0.387 | 0.347 | 0.317 | 0.323 | 0.295
15 | NCI-H1755 | 0.869 | 0.828 | 0.653 | 0.642 | 0.503 | 0.398 | 0.397 | 0.401 | 0.373 | 0.272 | 0.4 | 0.42 | 0.42 | 0.407 | 0.253 | 0.467 | 0.494 | 0.459 | 0.449 | 0.425
16 | NCI-H1793 | 0.839 | 0.717 | 0.856 | 0.469 | 0.181 | 1.02 | 0.838 | 0.79 | 0.766 | 0.49 | 0.449 | 0.416 | 0.306 | 0.385 | 0.184 | 0.349 | 0.281 | 0.32 | 0.301 | 0.31
